Where two headings read alike, the source gives them in different places.
What was measured:
[1] = biological target: T1, USP7 (Homo sapiens, UniProt Q93009); assay: USP7 activity assay (Ub-AMC substrate); assay type: biochemical; conditions: Ub-AMC 300 nM, USP7 100 pM, 30 min pre-incubation
T1 construct: Full-length wild-type human USP7 and its catalytic mutant (cysteine 223 replaced by alanine, C223A) were produced as N-terminally His-tagged fusions; His (N); made in house; host or cells: Spodoptera frugiperda Sf9 (or High Five) insect cells, baculovirus pFastBac-HT-B
Text: The cDNA encoding USP7 was obtained by PCR amplification from placenta mRNA. USP7 cDNA was subcloned by PCR into a baculovirus expression vector (pFastBac-HT; Invitrogen). Full-length wild-type human USP7 and its catalytic mutant (cysteine 223 replaced by alanine, C223A) were produced as N-terminally His-tagged fusions in Spodoptera frugiperda cells (Sf9, Invitrogen), using the Bac-to-Bac Baculovirus system from Invitrogen according to the manufacturer's instructions. pFastBac-HT-B-USP7 was used to transform DH10bac cells (Invitrogen), and blue/white selection was carried out on X-gal/IPTG agar plates. Bacmid DNA was prepared by an alkaline lysis procedure. The integrity of the bacmid minipreps and their orientation were checked by PCR, using generic and specific primers. Sf9 insect cells were cultured in InsectXpress medium (Cambrex) at 27° C. and transfected with the corresponding bacmid, using GeneShuttle 40 (Q-BIOgen). Viruses were recovered in the supernatant 72 h after transfection. Viruses were amplified by infecting insect cells (Sf9 or High Five cells; invitrogen) in 50 ml InsectXpress medium in a 150 cm^2 cell culture flask with 500 μl of the supernatant from transfected Sf9 cells. Following the second round of amplification, infected cells were recovered by rapid SDS lysis, boiled for 5 min at 100° C., sonicated briefly and centrifuged for 20 min at 14,000 g. Expression levels in infected Sf9 cells were compared with those in uninfected cells. Fusion proteins were then allowed to bind to TALON beads (BD Biosciences, TALON metal affinity resin) for 30 min at 4° C. with gentle rocking. Beads were extensively washed (50 mM sodium phosphate buffer pH 7.0, 500 mM NaCl, 10 mM Imidazole, 0.5% Triton X-100 and 10% glycerol) and bound proteins were eluted in wash buffer supplemented with 250 mM Imidazole (Sigma). Eluted fractions were resolved on 4-12% NuPAGE gels (Novex, Invitrogen). Fractions containing high concentrations of purified proteins (purity >95%) were dialyzed (20 mM Tris HCl pH 7.6, 200 mM NaCl, 1 mM DTT, 1 mM EDTA and 10% glycerol) were aliquoted and snap frozen in liquid nitrogen before storage at −80° C.
USP7 was diluted in USP buffer (50 mM Tris HCl; 0.5 mM EDTA; 5 mM DTT; 0.01% Triton X-100; Bovine Serum Albumin 0.05 mg·ml^−1 pH7.6). Compounds stocks (10 mM) were stored at −20° C. in DMSO. Compounds were tested at different concentrations: from 200 μM to 91 nM.
Reactions were performed as duplicates in Black 384 well plates (small volumes microplates; Greiner; 10 μl final reaction volume). The substrate concentration for USP7 was 300 nM Ub-AMC (Chem. Biol., 2003, 10, p. 837-846) (Boston Biochem). The concentrations of the enzyme (USP7) in specificity assays was 100 pM. The concentrations were determined in order to perform specificity assays under initial velocities at fixed substrate concentration. Compounds were pre-incubated with enzymes for 30 minutes at 25° C. Reactions were initiated by addition of substrate to the plates containing the enzymes (+/− compounds) diluted in assay buffer. Reactions were incubated for 60 minutes at 37° C. Reactions were stopped by adding acetic acid (100 mM final). Readings were performed on a Pherastar Fluorescent Reader (BMG). λ
Emission 380 nm; λ Excitation=460 nm. Data (mean values +/− standard deviation) were analyzed as % of control (no compound) and plotted as percentage versus the Log of the compound concentration using GraphPad (Prism). Data were fitted to a sigmoidal model (variable slope).

[2] = test system: HCT116 colon cancer cells; assay: HCT116 cell viability and proliferation assay (MTS); assay type: cell-based; conditions: HCT116, 72 hours, read-out: Cell viability (MTS): HCT116 GI50 Day3
Method: HCT116 colon cancer cells were obtained from ATCC (American Type Culture Collection), and maintained in Mc Coy's 5A medium containing 10% FBS, 3 mM glutamine and 1% penicillin/streptomycin. Cells were incubated at 37° C. in a humidified atmosphere containing 5% CO2.
Cell viability was assayed using the MTS technique in 96-well culture plates (CellTiter 96® Aqueous Non-Radioactive Cell Proliferation Assay, Promega) according to the manufacturer's instructions. MTS (3-(4,5-dimethyl-thiazol-2-yl)-5-(3-carboxy-methoxyphenyl)-2-(4-sulfophenyl)-2H-tetra-zolium) is a MTT-derived tetrazolium that is reduced in metabolically active cells into a soluble, cell-permeant formazan. The amount of formazan, detected by its absorbance at 492 nm is proportional to the number of living, metabolically active cells.
10^3 HCT116 cells were seeded per well. 24 hours later, the medium was changed and the cells treated in triplicate with the concentrations of each compound from 100 μM to 50 nM. The compounds were diluted in 100% DMSO, whose final concentration on cells was kept at 0.5%.
Cells were incubated with the compounds for 72 hours, and their viability then assayed by the addition of MTS for 2 hours. Absorbance at 492 nm was measured directly from the 96-well culture plates. Gl50 (Growth Inhibition 50) concentrations for each compound were calculated using a sigmoidal variable slope fit (Prism 4.0, Graphpad Softwares). Values represent mean of three independent experiments.

[3] = biological target: T1, USP7; assay: USP7 assay with GST-Ub52-Flag substrate (HTRF); assay type: biochemical; conditions: USP7 200 pM
Method: (§1) For compounds 26 to 38, the in-vitro assays on USP7 and USP8 were carried out according to the following procedure
(§2) The present examples 26 to 38 makes it possible to validate the use of GST-Ub52-Flag in an assay based on the time-resolved measurement of fluorescence emitted by […] in homogenous medium.
(§3) The assay is carried out on multiwell assay plates. The plates are analyzed on a PHERAstar fluorimeter (BMG) after an overnight incubation at 4° C. (excitation 337 nm, emission 620 and 665 nm).
(§4) The reagents used were as follows: • Solution of USP7 at 200 pM and USP8 at 400 pM in 50 mM Tris HCl pH 7.6, Bovine Serum Albumin 0.05%, DTT 5 mM. • Anti-Flag-K (CIS bio international), solution at 0.2 μM in 0.8 M KF, 0.1 Bovine Serum Albumin, Tris HCl 25 mM pH 7.6. • Anti-GST antibody-XL665 conjugate (CIS bio international), solution at 2.6 μM in 0.8 M KF, 0.1% Bovine Serum Albumin, Tris HCl 25 mM pH 7.6. • GST-Ub52-flag solution at 14.75 μM & MBP_Ub52 at 37.7 μM are prepared by dilutions from the stock solution described above in 50 mM Tris HCl pH 7.6, EDTA 0.5 mM, Bovine Serum Albumin 0.05%, DTT 5 mM.
(§5) The enzyme reaction is carried out by mixing GST-Ub52-flag solution with 5 μl of USP7 solution (200 pM final) or 5 μl of USP8 (400 pM final). This mixture is incubated for one hour at room temperature on a multiwell assay plate. A 10 μl mixture of 5 μl of anti-Flag-K solution (0.2 μM) plus 5 μl of anti-GST-XL665 antibody (2.6 μM) is added to each well of the multiwell assay plate. The plate is read after an overnight incubation at 4° C. on a PHERAstar fluorimeter (BMG).
(§6) The decrease in the signal correlates with the increase in enzyme activity i.e. the cleavage of GST-Ub52-Flag substrate. The format used is therefore entirely suitable for a method of assaying an enzyme of the deubiquitinating type such as ubiquitin specific protease, but also for determining a modulator of this enzyme activity.
(§7) The same procedures as mentioned above for assaying the activity of enzymes of the deubiquitinating type are carried out but the various reaction mixtures are incubated with identical enzyme concentration, in the presence or absence of a test compounds 26 to 38. Data (mean values+/− standard deviation) were analyzed as % of control (no compound) and plotted as percentage versus the Log of the compound concentration using GraphPad (Prism).

[4] = biological target: T2, USP8 (Homo sapiens, UniProt P40818); assay: USP8 assay with GST-Ub52-Flag substrate (HTRF); assay type: biochemical; conditions: USP8 400 pM
T2 construct: His (from pFastBac-HT vector) (N); made in house; host or cells: Sf9 or High Five insect cells, baculovirus
T2 sequence (P40818 1-1118): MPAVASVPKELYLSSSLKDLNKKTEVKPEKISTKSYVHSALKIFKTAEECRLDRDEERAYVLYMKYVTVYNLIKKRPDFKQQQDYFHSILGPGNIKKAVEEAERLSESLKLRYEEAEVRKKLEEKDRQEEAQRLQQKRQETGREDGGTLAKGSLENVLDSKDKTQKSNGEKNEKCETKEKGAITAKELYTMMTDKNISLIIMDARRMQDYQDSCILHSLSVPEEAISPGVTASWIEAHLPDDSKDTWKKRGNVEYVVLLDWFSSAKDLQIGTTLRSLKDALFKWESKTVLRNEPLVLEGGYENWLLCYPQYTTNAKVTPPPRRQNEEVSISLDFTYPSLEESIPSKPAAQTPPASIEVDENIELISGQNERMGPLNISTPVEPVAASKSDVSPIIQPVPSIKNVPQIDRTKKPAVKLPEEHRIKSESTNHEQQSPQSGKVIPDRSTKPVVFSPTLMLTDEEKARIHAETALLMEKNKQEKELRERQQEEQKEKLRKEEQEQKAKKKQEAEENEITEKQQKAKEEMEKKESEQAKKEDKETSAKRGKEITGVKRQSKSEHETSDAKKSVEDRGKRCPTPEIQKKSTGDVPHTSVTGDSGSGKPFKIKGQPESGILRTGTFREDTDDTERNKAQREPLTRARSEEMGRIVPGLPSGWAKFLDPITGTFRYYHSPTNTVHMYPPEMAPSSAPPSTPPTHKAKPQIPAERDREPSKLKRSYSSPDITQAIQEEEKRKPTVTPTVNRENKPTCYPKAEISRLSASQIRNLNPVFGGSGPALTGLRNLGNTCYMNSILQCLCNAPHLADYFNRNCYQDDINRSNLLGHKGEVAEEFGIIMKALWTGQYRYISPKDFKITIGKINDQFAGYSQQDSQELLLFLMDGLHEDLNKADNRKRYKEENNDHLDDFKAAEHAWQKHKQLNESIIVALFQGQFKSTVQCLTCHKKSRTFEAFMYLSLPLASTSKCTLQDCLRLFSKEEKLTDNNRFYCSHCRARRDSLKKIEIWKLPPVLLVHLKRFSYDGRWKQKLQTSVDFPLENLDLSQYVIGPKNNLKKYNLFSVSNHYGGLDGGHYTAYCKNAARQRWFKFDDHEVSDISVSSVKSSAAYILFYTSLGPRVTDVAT
Method: as §1, §2, §3, §4, §5, §6, §7

Structure (SMILES) | IC50 [1] [µM] | GI50 [2] [µM] | GI50 ([2]; Homo sapiens, HCT-116, 72 h) [µM] | IC50 [3] [µM] | IC50 [4] [µM]
O=C(NCC1CCN(CCCc2ccccc2)CC1)c1ccc2c(Cl)c3c(nc2c1)CCCC3 [Example 33, 9-chloro-N-((1-(3-phenylpropyl)piperidin-4-yl)methyl)-5,6,7,8-tetrahydroacridine-3-carboxamide] | – | – | 2 | 16.4 | > 200
CCN(CC)CCCC(C)NC(=O)c1ccc2c(Cl)c3c(nc2c1)CCCC3 (centres unmarked) [Example 35, 9-chloro-N-(5-(diethylamino)pentan-2-yl)-5,6,7,8-tetrahydroacridine-3-carboxamide] | – | – | 8.2 | 36.9 | > 200
CCN1CCC[C@@H]1CNC(=O)c1ccc2c(Cl)c3c(nc2c1)CCCC3 [Example 36, (R)-9-chloro-N-((1-ethylpyrrolidin-2-yl)methyl)-5,6,7,8-tetrahydroacridine-3-carboxamide] | – | – | 9.1 | 44.4 | > 200
CCN1CCC[C@H]1CNC(=O)c1ccc2c(Cl)c3c(nc2c1)CCCC3 [Example 37, (S)-9-chloro-N-((1-ethylpyrrolidin-2-yl)methyl)-5,6,7,8-tetrahydroacridine-3-carboxamide] | – | – | 8.7 | 25.9 | > 200
O=C(NCCCN1CCc2ccccc2C1)c1ccc2c(Cl)c3c(nc2c1)CCCC3 [Example 39, 9-chloro-N-(3-(3,4-dihydroisoquinolin-2(1H)-yl)propyl)-5,6,7,8-tetrahydroacridine-3-carboxamide] | – | – | 7.6 | 38.5 | > 200

Second part, the compound after the results:

IC50 [1] [µM] | GI50 [2] [µM] | GI50 ([2]; Homo sapiens, HCT-116, 72 h) [µM] | IC50 [3] [µM] | IC50 [4] [µM] | Structure (SMILES)
30.5 | 5.6 | – | – | – | CCN(CC)CCNC(=O)c1ccc2c(Cl)c3c(nc2c1)CCCC3 [Example 26, chlorhydrate of 9-chloro-5,6,7,8-tetrahydro-acridine-3-carboxylic acid (2-diethylamino-ethyl)-amide]
– | – | 2.8 | 24.5 | > 200 | O=C(NCC1CCN(CCc2ccccc2)CC1)c1ccc2c(Cl)c3c(nc2c1)CCCC3 [Example 34, 9-chloro-N-((1-phenethylpiperidin-4-yl)methyl)-5,6,7,8-tetrahydroacridine-3-carboxamide]
– | – | 11 | 49.2 | > 200 | CN(C)CC(C)(C)CNC(=O)c1ccc2c(Cl)c3c(nc2c1)CCCC3 [Example 38, 9-chloro-N-(3-(dimethylamino)-2,2-dimethylpropyl)-5,6,7,8-tetrahydroacridine-3-carboxamide]
